Reference: ChEMBL document CHEMBL3885881, “DrugMatrix”

Organism: Rattus norvegicus
Test: DrugMatrix - Regimen: Daily Repeat
Format: toxicity, organism-based, Sprague-Dawley
Set-up: regimen Daily Repeat, gender Male, age 6-8 weeks
Conditions: in vivo, po, route oral GAVAGE, vehicle .5 % CMC; for ABSOLUTE BASOPHIL / ABSOLUTE EOSINOPHIL / ABSOLUTE LYMPHOCYTE / ABSOLUTE MONOCYTE / ABSOLUTE SEGMENTED NEUTROPHIL / BASOPHIL / EOSINOPHIL / ERYTHROCYTE COUNT / HEMATOCRIT / HEMOGLOBIN / LEUKOCYTE COUNT / LYMPHOCYTE / MEAN CORPUSCULAR HEMOGLOBIN / MEAN CORPUSCULAR HEMOGLOBIN CONCENTRATION / MONOCYTE / NEUTROPHIL / NUCLEATED RED BLOOD CELLS / PLATELET COUNT: tissue Blood; for ALANINE AMINOTRANSFERASE / ALBUMIN / ALKALINE PHOSPHATASE / ASPARTATE AMINOTRANSFERASE / BLOOD UREA NITROGEN / CARBON DIOXIDE / CHLORIDE / CHOLESTEROL / CREATINE PHOSPHOKINASE / CREATININE / GLUCOSE / LACTATE DEHYDROGENASE / LIPASE / PHOSPHORUS / POTASSIUM / SODIUM / TOTAL BILIRUBIN / TOTAL PROTEIN / URIC ACID: tissue Plasma
[1] = 0 mg/kg, 72 h, dose level Control, time 3 day
[2] = 0 mg/kg, 120 h, dose level Control, time 5 day
[3] = 1100 mg/kg, 72 h, dose level High, time 3 day
[4] = 1100 mg/kg, 120 h, dose level High, time 5 day

C[C@H]1[C@H](NC(=O)/C(=N\OC(C)(C)C(=O)O)c2csc(N)n2)C(=O)N1S(=O)(=O)O [AZTREONAM]
ABSOLUTE BASOPHIL [1]: 0 CELLS/uL
ABSOLUTE EOSINOPHIL [1]: 222.83 CELLS/uL
ABSOLUTE LYMPHOCYTE [1]: 14453 CELLS/uL
ABSOLUTE MONOCYTE [1]: 0 CELLS/uL
ABSOLUTE SEGMENTED NEUTROPHIL [1]: 1490.83 CELLS/uL
BASOPHIL [1]: 0%
EOSINOPHIL [1]: 1.33%
ERYTHROCYTE COUNT [1]: 5.76 x10E6/uL
HEMATOCRIT [1]: 36.52%
HEMOGLOBIN [1]: 13.45 G/DL
LEUKOCYTE COUNT [1]: 16.17 x10E3/uL
LYMPHOCYTE [1]: 89.33%
MEAN CORPUSCULAR HEMOGLOBIN [1]: 23.37 pg
MEAN CORPUSCULAR HEMOGLOBIN CONCENTRATION [1]: 36.85 G/DL
MONOCYTE [1]: 0%
NEUTROPHIL [1]: 9.33%
NUCLEATED RED BLOOD CELLS [1]: 0 /100WBC
PLATELET COUNT [1]: 1239.5 x10E3/uL
ALANINE AMINOTRANSFERASE [1]: 43.83 u/L
ALBUMIN [1]: 4.27 G/DL
ALKALINE PHOSPHATASE [1]: 398.83 u/L
ASPARTATE AMINOTRANSFERASE [1]: 81.17 u/L
BLOOD UREA NITROGEN [1]: 17.67 mg/dL
CARBON DIOXIDE [1]: 27.5 mmol/L
CHLORIDE [1]: 99.17 MEQ/L
CHOLESTEROL [1]: 74 mg/dL
CREATINE PHOSPHOKINASE [1]: 331.5 u/L
CREATININE [1]: 0.2 mg/dL
GLUCOSE [1]: 171.33 mg/dL
LACTATE DEHYDROGENASE [1]: 241.67 u/L
LIPASE [1]: 9.5 u/L
PHOSPHORUS [1]: 12.25 mg/dL
POTASSIUM [1]: 6.33 MEQ/L
SODIUM [1]: 141.28 MEQ/L
TOTAL BILIRUBIN [1]: 0.15 mg/dL
TOTAL PROTEIN [1]: 5.98 G/DL
URIC ACID [1]: 1.63 mg/dL
ABSOLUTE BASOPHIL [2]: 0 CELLS/uL
ABSOLUTE EOSINOPHIL [2]: 148.67 CELLS/uL
ABSOLUTE LYMPHOCYTE [2]: 16020.5 CELLS/uL
ABSOLUTE MONOCYTE [2]: 29.17 CELLS/uL
ABSOLUTE SEGMENTED NEUTROPHIL [2]: 1468.33 CELLS/uL
BASOPHIL [2]: 0%
EOSINOPHIL [2]: 1%
ERYTHROCYTE COUNT [2]: 5.78 x10E6/uL
HEMATOCRIT [2]: 35.77%
HEMOGLOBIN [2]: 13.4 G/DL
LEUKOCYTE COUNT [2]: 17.67 x10E3/uL
LYMPHOCYTE [2]: 90.5%
MEAN CORPUSCULAR HEMOGLOBIN [2]: 23.22 pg
MEAN CORPUSCULAR HEMOGLOBIN CONCENTRATION [2]: 37.47 G/DL
MONOCYTE [2]: 0.17%
NEUTROPHIL [2]: 8.33%
NUCLEATED RED BLOOD CELLS [2]: 0.17 /100WBC
PLATELET COUNT [2]: 1255.5 x10E3/uL
ALANINE AMINOTRANSFERASE [2]: 46.5 u/L
ALBUMIN [2]: 4.38 G/DL
ALKALINE PHOSPHATASE [2]: 336 u/L
ASPARTATE AMINOTRANSFERASE [2]: 76.5 u/L
BLOOD UREA NITROGEN [2]: 20 mg/dL
CARBON DIOXIDE [2]: 27.5 mmol/L
CHLORIDE [2]: 101 MEQ/L
CHOLESTEROL [2]: 71.33 mg/dL
CREATINE PHOSPHOKINASE [2]: 231.83 u/L
CREATININE [2]: 0.37 mg/dL
GLUCOSE [2]: 168.83 mg/dL
LACTATE DEHYDROGENASE [2]: 174 u/L
LIPASE [2]: 8.67 u/L
PHOSPHORUS [2]: 11.48 mg/dL
POTASSIUM [2]: 6.82 MEQ/L
SODIUM [2]: 143.8 MEQ/L
TOTAL BILIRUBIN [2]: 0.2 mg/dL
TOTAL PROTEIN [2]: 5.98 G/DL
URIC ACID [2]: 1.83 mg/dL
ABSOLUTE BASOPHIL [3]: 0 CELLS/uL
ABSOLUTE EOSINOPHIL [3]: 113.67 CELLS/uL
ABSOLUTE LYMPHOCYTE [3]: 10636 CELLS/uL
ABSOLUTE MONOCYTE [3]: 74.67 CELLS/uL
ABSOLUTE SEGMENTED NEUTROPHIL [3]: 842.33 CELLS/uL
BASOPHIL [3]: 0%
EOSINOPHIL [3]: 1%
ERYTHROCYTE COUNT [3]: 5.33 x10E6/uL
HEMATOCRIT [3]: 34.77%
HEMOGLOBIN [3]: 12.97 G/DL
LEUKOCYTE COUNT [3]: 11.67 x10E3/uL
LYMPHOCYTE [3]: 91%
MEAN CORPUSCULAR HEMOGLOBIN [3]: 24.4 pg
MEAN CORPUSCULAR HEMOGLOBIN CONCENTRATION [3]: 37.3 G/DL
MONOCYTE [3]: 0.67%
NEUTROPHIL [3]: 7.33%
NUCLEATED RED BLOOD CELLS [3]: 0 /100WBC
PLATELET COUNT [3]: 1394 x10E3/uL
ALANINE AMINOTRANSFERASE [3]: 52 u/L
ALBUMIN [3]: 4.03 G/DL
ALKALINE PHOSPHATASE [3]: 364.67 u/L
ASPARTATE AMINOTRANSFERASE [3]: 79 u/L
BLOOD UREA NITROGEN [3]: 16.33 mg/dL
CARBON DIOXIDE [3]: 27 mmol/L
CHLORIDE [3]: 100.33 MEQ/L
CHOLESTEROL [3]: 72 mg/dL
CREATINE PHOSPHOKINASE [3]: 274.33 u/L
CREATININE [3]: 0.18 mg/dL
GLUCOSE [3]: 167.67 mg/dL
LACTATE DEHYDROGENASE [3]: 74.33 u/L
LIPASE [3]: 8.67 u/L
PHOSPHORUS [3]: 11.13 mg/dL
POTASSIUM [3]: 5.8 MEQ/L
SODIUM [3]: 142.4 MEQ/L
TOTAL BILIRUBIN [3]: 0.17 mg/dL
TOTAL PROTEIN [3]: 5.53 G/DL
URIC ACID [3]: 1.6 mg/dL
ABSOLUTE BASOPHIL [4]: 0 CELLS/uL
ABSOLUTE EOSINOPHIL [4]: 309 CELLS/uL
ABSOLUTE LYMPHOCYTE [4]: 13777 CELLS/uL
ABSOLUTE MONOCYTE [4]: 0 CELLS/uL
ABSOLUTE SEGMENTED NEUTROPHIL [4]: 1914 CELLS/uL
BASOPHIL [4]: 0%
EOSINOPHIL [4]: 1.67%
ERYTHROCYTE COUNT [4]: 5.78 x10E6/uL
HEMATOCRIT [4]: 35.83%
HEMOGLOBIN [4]: 13.5 G/DL
LEUKOCYTE COUNT [4]: 16 x10E3/uL
LYMPHOCYTE [4]: 87%
MEAN CORPUSCULAR HEMOGLOBIN [4]: 23.37 pg
MEAN CORPUSCULAR HEMOGLOBIN CONCENTRATION [4]: 37.7 G/DL
MONOCYTE [4]: 0%
NEUTROPHIL [4]: 11.33%
NUCLEATED RED BLOOD CELLS [4]: 0.33 /100WBC
PLATELET COUNT [4]: 1184.33 x10E3/uL
ALANINE AMINOTRANSFERASE [4]: 47.67 u/L
ALBUMIN [4]: 4.5 G/DL
ALKALINE PHOSPHATASE [4]: 346 u/L
ASPARTATE AMINOTRANSFERASE [4]: 72 u/L
BLOOD UREA NITROGEN [4]: 16 mg/dL
CARBON DIOXIDE [4]: 27 mmol/L
CHLORIDE [4]: 102.33 MEQ/L
CHOLESTEROL [4]: 65 mg/dL
CREATINE PHOSPHOKINASE [4]: 183.33 u/L
CREATININE [4]: 0.2 mg/dL
GLUCOSE [4]: 176.67 mg/dL
LACTATE DEHYDROGENASE [4]: 90 u/L
LIPASE [4]: 9.33 u/L
PHOSPHORUS [4]: 11.4 mg/dL
POTASSIUM [4]: 6.11 MEQ/L
SODIUM [4]: 146.47 MEQ/L
TOTAL BILIRUBIN [4]: 0.13 mg/dL
TOTAL PROTEIN [4]: 6 G/DL
URIC ACID [4]: 1.7 mg/dL
